# Where two headings read alike, the source gives them in different places.
# What was measured:
# [1] = tested on: patients with bronchiectasis; settings: 10 mg or 25 mg once daily, 24 weeks; cited from earlier work
# healthy volunteers = tested on: healthy volunteers; set-up: method as in PMID 29484635; settings: once daily up to 40 mg for up to 28 days; cited from earlier work
# [2] = tested on: production of active NE in U937 cells; assay: Inhibition of the production of active NE in a neutrophil progenitor cell line; format: cell-based; settings: Homo sapiens, U-937, 48 h incubation
# Description: The inhibitory activity of BI 1291583 on the production of active NE was investigated in duplicate experiments in the human myeloid cell line U937. U937 cells were used as they constitutively express and process NE. Additionally, a myeloid cell line was used rather than primary neutrophils as CatC activates NSPs in the bone marrow during myelopoiesis and no further activation occurs once the neutrophils have entered the bloodstream; as such, the effect of CatC inhibition cannot be investigated in primary neutrophils. BI 1291583 was added to cell suspensions at a final concentration of 0.064, 0.32, 1.6, 8, 40, 200 and 1000 nM. Cells were then incubated for 48 h. Cell viability was then measured in duplicate experiments using the CellTiter-Glo® Luminescent Cell Viability Assay according to manufacturer’s instructions. For measurement of NE activity, cells were separated by centrifugation, lysed and debris removed. NE activity was measured by conversion of a fluorescent substrate. Increase in fluorescence was measured over time with a SpectramaxM5 fluorescence reader at 360 nm excitation wavelength and 460 nm emission wavelength. The reaction rate when CatC is fully saturated by BI 1291583 was used as primary readout to calculate NE activity. Percentage inhibition of NE activity in lysates treated with BI 1291583 was calculated relative to the mean of the vehicle-only control. […]
# [3] = tested on: NE activity in mouse BALF neutrophils; assay: In vivo LPS-challenge model: NE activity in BALF neutrophil lysate; settings: 11-day dosing
# Protocol: In the first—a 2-day treatment holiday regimen—mice were treated with 0.005, 0.05, 0.5 or 5 mg/kg BI 1291583, or vehicle, twice daily by oral gavage on Days 1‒5, 8 and 9. On Day 10, a final dose of BI 1291583 or vehicle was given followed by challenge with nebulised E. coli lipopolysaccharide (LPS) to induce neutrophil influx into the lungs. In the second dosing regimen, mice were treated with 0.00005, 0.0001, 0.001, 0.01, 0.03, 0.1, 0.5 or 5 mg/kg BI 1291583, or vehicle, once daily by oral gavage for 11 consecutive days. On Day 12, a final dose of BI 1291583 or vehicle was given followed by LPS challenge.
# Four and a half hours after LPS challenge, lung neutrophils were harvested by lavage via tracheal cannula, and neutrophil count measured. Bronchoalveolar lavage fluid (BALF) samples were then centrifuged and cell pellets lysed with volume of lysis buffer normalised to neutrophil count. NE, CatG and PR3 activity were determined by conversion of a fluorescent substrate measured over time with a SpectramaxM5 fluorescence reader at 360 nm excitation wavelength and 460 nm emission wavelength. Fluorescence values were normalised to neutrophil count, and mean NE, CatG and PR3 activity from BI 1291583-treated animals was calculated relative to the mean of LPS/vehicle-treated control animals. CatG and PR3 activity was measured in pooled samples from each dose group. For the 11-day dosing experiments, the dose of BI 1291583 that inhibited 50% of NE activity (ED50) was calculated using GraphPad Prism software (version 9.5.0 for Windows, GraphPad Software, www.graphpad.com) with a non-linear regression curve fit. […] A one-way analysis of variance with Dunnett’s multiple comparisons test analysis was performed to determine statistical significance.
# The inhibitory activity of INS1007 on the production of active NE, and distribution of INS1007 to bone marrow and plasma was investigated under the same conditions as the 11-day dosing regimen (see Methods, Additional File 1).
# (§1) The animals were treated with BI 1291583 (0.005, 0.05, 0.5 and 5 mg/kg) or vehicle twice daily on Days 1‒5, 8 and 9. BI 1291583 or vehicle was applied orally by gavage (10 ml/kg body weight). On Day 10, animals were treated with BI 1291583 or vehicle followed by an LPS inhalation challenge.
# as §1, with “(0.00005, 0.0001, 0.001, 0.01, 0.03, 0.1, 0.5,” for “(0.005, 0.05, 0.5 and”, “once” for “twice”, “for 11 consecutive days.” for “on Days 1‒5, 8 and 9.”, “12,” for “10,”
# To induce neutrophil influx into the lungs, animals were challenged with an LPS inhalation at Day 12 of this study. LPS from E.coli (serotype 055:B5) was used (SigmaAldrich #L2880). […]
# The trachea was cannulated and a lavage was performed using 2x1 ml lavage buffer (HBSS [HyClone, # Sh30588,01] with 10 U/ml heparin). Cell count in the lavage fluid and cell differentiation were determined using a haemocytometer (Sysmex XT-200i), following the supplier’s instructions.
# For enzymatic NE measurement, the lavage cells were separated from two 500 µl aliquots of lavage fluid by centrifugation (1500rpm, 4°C, 15min), the supernatants were removed and the pellets were stored at -80°C for further analyses. For enzymatic proteinase 3 (PR3) and Cat G measurement, the remaining lavage samples from all animals of each dose group were pooled and cell count and cell differentiation were determined as described above. […]
# [4] = Bone marrow and plasma exposure after repeated oral dosing (LC-MS/MS); format: in vivo; settings: Crl:NMRI, mouse, 11-day dosing; for Kp at 5 h: bone marrow/plasma, 5 h after final dose, read-out: bone marrow-to-plasma exposure ratio
# Protocol: At 5 h after final BI 1291583 administration, animals were euthanised by Narcoren application (400–600 mg/kg intraperitoneally). For assessment of BI 1291583 exposure in plasma, five drops of retrobulbar blood were taken. The femur was prepared by extraction, shock frozen in liquid nitrogen and stored at − 20 °C until bone marrow preparation. For preparation of bone marrow, epiphysis severed off and bone marrow extracted from the diaphysis. Exposure was measured via liquid chromatography–tandem mass spectrometry. […]
# [5] = set-up: method as in PMID 28800383; settings: Phase 1 study; cited from earlier work
smiles,measurement,setting,value
Cn1c(=O)oc2ccc(-c3ccc(C[C@@H](C#N)NC(=O)[C@@H]4CNCCCO4)cc3)cc21 [brensocatib],annualised rates of exacerbations and number of severe exacerbations compared with placebo,[1],lower
same,incidence of hyperkeratosis compared with the placebo group,[1],higher
same,risk of exacerbation over the treatment period compared with placebo,[1],lower
same,time to first exacerbation compared with placebo,[1],significantly increased
same,NE activity,healthy volunteers,Exposure-related reduction
same,safety profile,healthy volunteers,generally well-tolerated
same,skin findings,healthy volunteers,"several dose-dependent, possibly CatC-related non-serious skin findings (exfoliation and hyperkeratosis)"
Cn1c(=O)oc2ccc(-c3ccc(C[C@@H](C#N)NC(=O)[C@@H]4CNCCCO4)cc3)cc21 [INS1007],IC50,[2],0.064 µM
same,inhibition of production of active NE compared with vehicle/LPS control,[3]; 0.1 mg/kg once daily oral,no inhibition
same,inhibition at 30 mg/kg,"[3]; Mus musculus, Neutrophil, 264 h, at 30 mg/kg (range 0.3-50 mg/kg), p<0.001, read-out: maximum inhibition of production of active NE compared with LPS control",76%
same,inhibition at 0.5 mg/kg,"[3]; Mus musculus, Neutrophil, po, 264 h, 0.5 mg/kg once daily oral, read-out: inhibition of production of active NE compared with vehicle/LPS control",19%
same,inhibition at 5 mg/kg,"[3]; Mus musculus, Neutrophil, po, 264 h, 5 mg/kg once daily oral, read-out: inhibition of production of active NE compared with vehicle/LPS control",75%
same,ED50,"[3]; Neutrophil, 264 h, once daily oral, read-out: ED50 for NE inhibition",1.4 mg/kg
same,concentration at 5 h,"[4]; bone marrow, 0.1 mg/kg, 5 h after final dose on Day 12, read-out: exposure in bone marrow, mean (SEM)",143 nM
same,concentration at 5 h,"[4]; bone marrow, 0.5 mg/kg, 5 h after final dose on Day 12, read-out: exposure in bone marrow, mean (SEM)",321 nM
same,concentration at 5 h,"[4]; bone marrow, 5 mg/kg, 5 h after final dose on Day 12, read-out: exposure in bone marrow, mean (SEM)",1690 nM
same,Kp at 5 h,"[4]; 0.1 mg/kg, 0.1 mg/kg",24
same,Kp at 5 h,"[4]; 0.5 mg/kg, 0.5 mg/kg",8
same,Kp at 5 h,"[4]; 5 mg/kg, 5 mg/kg",2
same,concentration at 5 h,"[4]; plasma, 0.1 mg/kg, 5 h after final dose on Day 12, read-out: exposure in plasma, mean (SEM)",6 nM
same,concentration at 5 h,"[4]; plasma, 0.5 mg/kg, 5 h after final dose on Day 12, read-out: exposure in plasma, mean (SEM)",40 nM
same,concentration at 5 h,"[4]; plasma, 5 mg/kg, 5 h after final dose on Day 12, read-out: exposure in plasma, mean (SEM)",710 nM
CC[C@@H](/C=C/C(=O)N1CCc2ccccc21)NC(=O)C1(N)CCOCC1 [GSK2793660],inhibition of downstream NSPs,[5],insufficient inhibition of downstream NSPs
same,skin events,[5],marked skin desquamation events

# From article PMC10499737 (Inflammation Research, 2023)
